# Laboratory results reported in EPA's ToxValDB 9.5 (doi:10.2903/j.efsa.2020.6151).
# Legend:
# [1] = test system: Apis mellifera; conditions: acute, mortality
# [2] = test system: Bibionidae; conditions: chronic/long-term; duration: 28 days; seedling emergence
# [3] = test system: Colinus virginianus; conditions: for LD50: acute, oral, mortality
# [4] = test system: Daphnia magna; conditions: chronic/long-term; duration: 21 days; other
# [5] = test system: Folsomia candida; conditions: chronic/long-term; duration: 28 days; reproduction
# [6] = test system: Pimephales promelas; conditions: chronic/long-term; duration: 33 days; other
# [7] = test system: Rattus norvegicus
# [8] = test system: Typhlodromus pyri; assay: LR50; higher = less toxic; conditions: not reported; mortality
smiles,measurement,setting,value
C#CCOC(=O)[C@@H](C)Oc1ccc(Oc2ncc(Cl)cc2F)cc1 [Clodinafop-propargyl],LD50,[1]; dermal,> 100 µg/piece
same,LD50,"[1]; oral, unspecified",> 104 µg/piece
same,NOEC,[2],1.2 mg/L
same,LD50,"[3]; duration: 5 days, diet",> 1040 mg/kg-day
same,LD50,[3],1460 mg/kg
same,NOEC,[3]; reproduction developmental,48.9 mg/kg-day
same,NOEC,[4],0.23 mg/L
same,NOEC,[5],1.6 mg/kg
same,NOEC,[6],0.024 mg/L
same,LD50,"[7]; acute, oral, mortality",> 1390 mg/kg
same,NOAEL,"[7]; chronic, duration: 2 years, M, histopathology: neoplastic",0.03 mg/kg-day
same,NOAEL,"[7]; developmental, development",5 mg/kg-day
same,NOAEL,"[7]; reproduction developmental, body weight",3.4 mg/kg-day
same,NOAEL,"[7]; subchronic, duration: 90 days, organ weight",0.92 mg/kg-day
same,LR50,[8],> 90 g/ha
